# Reference: patent US10174065B2, “Antidiabetic enolic glucoside of phenylpyruvic acid” (ZADEC APS, priority 2010, dated 2019)
# What was measured:
# gene expression in liver = assay: Quantitative real-time PCR gene expression in liver of obese, insulin resistant Wistar rats; assay type: in vivo
# Method: Three week old male rats were fed a high fat diet for 24 weeks to induce obesity and insulin resistance. Thereafter, rats were treated with 0.3 mg/kg Rx-1 daily for two weeks, and then with 3 mg/kg Rx-1 daily for seven days. Fasting glucose concentrations were measured before treatment, after two weeks treatment with 0.3 mg/kg Rx-1 and then again after seven days treatment with 3 mg/kg Rx-1. After treatment with 3 mg/kg Rx-1 rats were terminated and liver, muscle and pancreas biopsies were taken. Quantitative real-time PCR was used to measure the expression of 12 genes in liver and muscle samples, and ten genes in pancreas samples.
# Rats were housed at the Primate Unit (Medical Research Council, South Africa). Rat management including feeding, glucose measurements and terminations, were done according to standard operating procedures (Diabetes Discovery Platform, Medical Research Council). Briefly, three week old rats were fed a high fat diet for 24 weeks to induce T2D. The study group consisted of thirteen rats, eight rats were treated by daily gavage with 0.3 mg/kg Rx-1 for two weeks, and then with 3 mg/kg Rx-1 for seven days. Five rats were used as controls and were treated with water only for three weeks. Rats were terminated after treatment and liver, muscle and pancreas tissue harvested and stored in RNalater (Ambion) as recommended by the manufacturer. The study was approved by the ethics committee of the Medical Research Council of South Africa.
# Tissue was removed from RNAlater, weighed (80-100 mg), and placed in a 2 ml microfuge tube containing 1 ml of Trizol (Invitrogen) and a stainless steel bead (Qiagen). Tissue was homogenised in the TissueLyser (Qiagen) at 25 Hz for 6 min, centrifuged at 12,000 g for 10 min at 4° C., and the supernatant removed and incubated at room temperature for 5 min. Thereafter, 0.2 ml of chloroform (Sigma) was added, shaken vigorously for 15 sec, and then incubated at room temperature for 3 min with occasional mixing. Samples were centrifuged 12,000 g for 15 min at 4° C. and the aqueous phase was transferred to a new tube. RNA was precipitated by adding 0.5 ml isopropanol, mixed well for 30 sec, and placed at −20° C. overnight. The following day, tubes were centrifuged at 12,000 g for 20 min at 4° C. The pellet was washed with 1 ml of 75% ethanol and centrifuged at 12,000 g for 15 min at 4° C. The wash step was repeated. After the second wash, the pellet was air dried by placing tubes with their lids open (on ice) in a PCR cabinet for 2 hours. Excess liquid was removed by blotting tubes on paper towel occasionally during this incubation. The pellet was resuspended by adding 100 μl RNase-free water and incubating at 55° C. for 10 min. RNA concentrations were determined using a spectrophotometer (Nanodrop Technologies). Thereafter, RNA was purified with the RNeasy Mini Kit according to the manufacturer's instructions (Qiagen) and concentrations again determined with the Nanodrop. Genomic DNA was removed by treating RNA with Turbo DNA-free DNase (Ambion) and incubating at 37° C. for 90 min according to the manufacturer's instructions, but using 1.5× the units of DNase and incubation time recommended by the kit. In brief, 20 μg RNA was incubated with 1.5 μl (3 units) DNase, 5 μl DNase buffer, and nuclease-free water in a final reaction volume of 50 μl for 45 min at 37° C., thereafter, another 3 units of DNase was added and incubated for a further 45 min. DNase was inactivated by adding ⅕ volume (10 μl) of the DNase inactivation reagent supplied with the kit. Reactions were incubated at room temperature for 2 min, and centrifuged at 14,000 rpm for 1.5 min. The supernatant was removed and RNA concentrations were measured using the Nanodrop. The quality of the DNase-treated RNA was determined with the RNA 6000 Nano kit using the 2100 Bioanalyser Lab-on-a-Chip system as recommended by the manufacturers (Agilent technologies). […]
# 3T3-L1 adipocytes = assay: Glucose uptake in transformed 3T3-L1 adipocytes (colourometric glucose oxidase method); assay type: cell-based
# Method: 3T3-L1 cells were transformed in culture using modified DMEM differentiation media supplemented with insulin, dexametasone and isobutylmethylxanthine and cultured for 3 days. The transformed 3T3-L1 adipocytes were then cultured for a further 5 days in modified DMEM supplemented with 10% FCS before being exposed to insulin, metformin and compounds of the present invention (see Table 1). Glucose uptake over a three (3) hour period was determined after the 5 days of treatment using a colourometric glucose oxidase method (Biovision Inc, USA).
# The glucose concentration column represents the glucose concentration remaining in the media following three (3) hour exposure to the cells. The glucose uptake column represents glucose uptake from the media after a 3 hour exposure. SD represents the standard deviation. The percentage increases calculated from the relevant solvent vehicle and the P=values are reflected in the last two columns respectively.
# [1] = liver, 0.3 mg/kg two weeks then 3 mg/kg seven days
# [2] = liver, not statistically significant
smiles,measurement,setting,value
"O=C(O)/C(=C/c1ccccc1)O[C@@H]1O[C@H](CO)[C@@H](O)[C@H](O)[C@H]1O [RX-1, 3-Phenyl-2-(3,4,5-trihydroxy-6-hydroxymethyl-tetrahydro-pyran-2-yloxy)-acrylic acid]",Pi3k expression,"gene expression in liver; liver only, not significant",upregulated
same,Gck gene expression,"gene expression in liver; liver, 0.3 mg/kg daily two weeks then 3 mg/kg daily seven days, not statistically significant",increased
same,Glut1 expression,gene expression in liver; [1],increased
same,Glut2 expression,gene expression in liver; [1],increased
same,IR gene expression,gene expression in liver; [1],upregulated
same,IRS1 mRNA levels,gene expression in liver; [1],unchanged
same,IRS2 gene expression,gene expression in liver; [1],increased
same,PPARα expression,gene expression in liver; [1],significantly upregulated
same,GcgR gene expression,gene expression in liver; [2],increased
same,SOCS1 mRNA expression,gene expression in liver; [2],increased
same,SOCS3 mRNA expression,"gene expression in liver; liver, statistically significant",increased
same,glucose uptake over a 3 hour culture period,3T3-L1 adipocytes; 3T3-L1 adipose cells,significantly increased
same,Glucose conc.,"3T3-L1 adipocytes; glucose remaining in the media after 3 hour exposure to the cells, media containing 8 mM glucose",3.19 nM/ul
same,Glucose Uptake,"3T3-L1 adipocytes; glucose uptake from the media after 3 hour exposure, media containing 8 mM glucose",2.86 nM/ul
same,% uptake,"3T3-L1 adipocytes; relative to DMSO vehicle = 100.00, 3 hour glucose uptake",122.64%
